In brackets after ≈: the same amount, converted by molar mass.
How the values were obtained:
Salmonella typhi = experiment: Minimal inhibitory concentration against Salmonella typhi (MDR) ICH 098; type: functional, Salmonella enterica subsp. enterica serovar Typhi; settings: Salmonella enterica
[1] = test system: Staphylococcus epidermidis; experiment: Minimal inhibitory concentration against methicillin resistant Staphylococcus epidermidis ATCC 23760; type: functional
Serratia marcescens = experiment: Minimal inhibitory concentration against Serratia marcescens ATCC 12999; type: functional
Staphylococcus aureus [2] = experiment: Minimal inhibitory concentration against Staphylococcus aureus ATCC 25923; type: functional
Pseudomonas aeruginosa = experiment: Minimal inhibitory concentration against Pseudomonas aeruginosa ATCC 27853; type: functional
Klebsiella pneumoniae = experiment: Minimal inhibitory concentration against Klebsiella pneumoniae ATCC 15380; type: functional
Escherichia coli = experiment: Minimal inhibitory concentration against Escherichia coli ATCC 25922; type: functional
Staphylococcus aureus [3] = experiment: Minimal inhibitory concentration against methicillin resistant Staphylococcus aureus ST450; type: functional
Bacillus cereus = experiment: Minimal inhibitory concentration against Bacillus cereus; type: functional
Enterococcus faecium = experiment: Minimal inhibitory concentration against Enterococcus faecium 6A-VRE; type: functional
Enterococcus faecalis [4] = experiment: Minimal inhibitory concentration against Enterococcus faecalis (VRE) ATCC 346-VRE; type: functional
[5] = test system: Salmonella enterica subsp. enterica serovar Abony; experiment: Minimal inhibitory concentration against Salmonella abony NCTC 6017; type: functional
[6] = test system: Staphylococcus epidermidis; experiment: Minimal inhibitory concentration against Staphylococcus epidermidis ATCC 12228; type: functional
Enterococcus durans = experiment: Minimal inhibitory concentration against Enterococcus durans ATCC 581; type: functional
Enterococcus faecalis [7] = experiment: Minimal inhibitory concentration against Enterococcus faecalis ATCC 29212; type: functional
Staphylococcus aureus [8] = experiment: Minimal inhibitory concentration against methicillin resistant Staphylococcus aureus ST450; value ranges from 2-4 ug/mL; type: functional
Staphylococcus aureus [9] = experiment: Minimal inhibitory concentration against methicillin resistant Staphylococcus aureus ST450; value ranges from 1-2 ug/mL; type: functional

Compound | MIC (Salmonella typhi) [µg/mL] | MIC [1] [µg/mL] | MIC (Serratia marcescens) [µg/mL] | MIC (Staphylococcus aureus [2]) [µg/mL] | MIC (Pseudomonas aeruginosa) [µg/mL] | MIC (Klebsiella pneumoniae) [µg/mL] | MIC (Escherichia coli) [µg/mL] | MIC (Staphylococcus aureus [3]) [µg/mL] | MIC (Bacillus cereus) [µg/mL] | MIC (Enterococcus faecium) [µg/mL] | MIC (Enterococcus faecalis [4]) [µg/mL] | MIC [5] [µg/mL] | MIC [6] [µg/mL] | MIC (Enterococcus durans) [µg/mL] | MIC (Enterococcus faecalis [7]) [µg/mL] | MIC (Staphylococcus aureus [8]) [µg/mL] | MIC (Staphylococcus aureus [9]) [µg/mL]
CO/C(S)=N\C[C@H]1CN(c2ccc(Oc3ccc(NC(C)=O)cc3)c(F)c2)C(=O)O1 | > 16 | 16 (≈ 36.9 µM) | > 16 | 8 (≈ 18.5 µM) | > 16 | > 16 | > 16 | 16 (≈ 36.9 µM) | > 16 | 16 (≈ 36.9 µM) | 8 (≈ 18.5 µM) | > 16 | 8 (≈ 18.5 µM) | 8 (≈ 18.5 µM) | 8 (≈ 18.5 µM) |  | 
CC(=O)Nc1ccc(Oc2ccc(N3C[C@H](C/N=C(\N)S)OC3=O)cc2F)cc1 | > 16 | 4 (≈ 9.56 µM) | > 16 | 2 (≈ 4.78 µM) | > 16 | > 16 | > 16 |  | > 16 | 4 (≈ 9.56 µM) | 4 (≈ 9.56 µM) | > 16 | 2 (≈ 4.78 µM) | 2 (≈ 4.78 µM) | 4 (≈ 9.56 µM) | 4 (≈ 9.56 µM) | 
CC(=O)NC[C@H]1CN(c2ccc(Oc3cccc(NC(C)=O)c3)c(F)c2)C(=O)O1 | > 16 | > 16 | > 16 | > 16 | > 16 | > 16 | > 16 | > 16 | > 16 | > 16 | > 16 | > 16 | > 16 | > 16 | > 16 |  | 
CC(=O)Nc1ccc(Sc2ccc(N3C[C@H](C/N=C(\N)S)OC3=O)cc2F)cc1 | > 16 | 2 (≈ 4.6 µM) | > 16 | 1 (≈ 2.3 µM) | > 16 | > 16 | > 16 |  | > 16 | 2 (≈ 4.6 µM) | 2 (≈ 4.6 µM) | > 16 | 1 (≈ 2.3 µM) | 2 (≈ 4.6 µM) | 2 (≈ 4.6 µM) |  | 2 (≈ 4.6 µM)
CC(=O)Nc1ccc(Oc2ccc(N3C[C@H](C/N=C(/S)N(C)C)OC3=O)cc2F)cc1 | > 16 | 16 (≈ 35.8 µM) | > 16 | 16 (≈ 35.8 µM) | > 16 | > 16 | > 16 | 16 (≈ 35.8 µM) | > 16 | > 16 | 16 (≈ 35.8 µM) | > 16 | 16 (≈ 35.8 µM) | 16 (≈ 35.8 µM) | 16 (≈ 35.8 µM) |  | 
CC(=O)Nc1ccc(Oc2ccc(N3C[C@H](C/N=C(/S)NC4CC4)OC3=O)cc2F)cc1 | > 16 | 16 (≈ 34.9 µM) | > 16 | > 16 | > 16 | > 16 | > 16 | 16 (≈ 34.9 µM) | > 16 | > 16 | 16 (≈ 34.9 µM) | > 16 | 16 (≈ 34.9 µM) | 16 (≈ 34.9 µM) | 8 (≈ 17.4 µM) |  | 
CC(=O)Nc1ccc(Sc2ccc(N3C[C@H](C/N=C(/S)N(C)C)OC3=O)cc2F)cc1 | > 16 | 16 (≈ 34.6 µM) | > 16 | 16 (≈ 34.6 µM) | > 16 | > 16 | > 16 | > 16 | > 16 | > 16 | 16 (≈ 34.6 µM) | > 16 | 16 (≈ 34.6 µM) | 16 (≈ 34.6 µM) | 8 (≈ 17.3 µM) |  | 
CC(=O)NC[C@H]1CN(c2ccc(N3CCOCC3)c(F)c2)C(=O)O1 [LINEZOLID] | > 16 | 2 (≈ 5.93 µM) | > 16 |  | > 16 | > 16 | > 16 |  | > 16 | 2 (≈ 5.93 µM) |  | > 16 | 2 (≈ 5.93 µM) | 2 (≈ 5.93 µM) |  |  | 

Source: ChEMBL document CHEMBL1137831, “Synthesis and antibacterial activity of some aryloxy/thioaryloxy oxazolidinone derivatives” (2004)
